# According to patent US20250228239A1, “MOLECULES HAVING PESTICIDAL UTILITY, AND INTERMEDIATES, COMPOSITIONS, AND PROCESSES, RELATED THERETO” (priority 2024, published 2025):
# What was measured:
# Type in all cases: in vivo
# [1] = tested on: Beet Armyworm (Spodoptera exigua, LAPHEG); assay: Bioassays on Beet Armyworm (BAW), 128-well diet tray assay; settings: Spodoptera exigua; Beet Armyworm; rating class; read-out: BAW
# In short: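 Test molecule was dissolved in 90:10 acetone-water and applied at 50 μg/cm^2 onto artificial diet in eight wells, then dried. Second instar larvae, one to five per well, were added, and trays were kept vented at 25° C. with a 14:10 photoperiod for five to seven days before mortality was recorded.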
# [2] = tested on: Cabbage Looper (Trichoplusia ni, TRIPNI); assay: Bioassays on Cabbage Looper (CL), 128-well diet tray assay; settings: Trichoplusia ni; Cabbage Looper; rating class; read-out: CL
# In short: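 Test molecule was dissolved in 90:10 acetone-water, applied to artificial diet at 50 μg/cm^2 and allowed to dry. Second-instar larvae were then added, one to five per well, and trays held at 25° C for five to seven days before mortality was scored and averaged.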
# [3] = tested on: Yellow Fever Mosquito (Aedes aegypti, AEDSAE); settings: Yellow Fever Mosquito; rating class
# In short: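 Rating-scale grades reflect larval mortality scored per well after 3 days at room temperature under non-evaporative lids. Larvae (~1 day old, hatched overnight in liver-powder water) were added to six daughter plates per compound, prepared from a 4000 ppm DMSO stock diluted in 90:10 water/acetone.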
SMILES,pest or weed control at 50 µg/cm2 [1],pest or weed control at 50 µg/cm2 [2],YFM [3]
"CN(C(=O)C(F)F)c1c(F)ccc(NC(=O)c2cc(NC(=O)[C@H]3[C@H](c4cc(Cl)c(Cl)c(Cl)c4)C3(Cl)Cl)ccc2Cl)c1F [F1461, 2-Chloro-5-((1R,3R)-2,2-dichloro-3-(3,4,5-trichlorophenyl)cyclopropane-1-carboxamido)-N-(3-(2,2-difluoro-N-methylacetamido)-2,4-difluorophenyl)benzamide]",50 to 100%,50 to 100%,A (80–100)
"O=C(Nc1ccccc1)c1c(Cl)ccc(NC(=O)[C@H]2[C@H](c3ccc(F)c(Cl)c3)C2(Cl)Cl)c1F [F1466, 6-Chloro-3-((1R,3R)-2,2-dichloro-3-(3-chloro-4-fluorophenyl)cyclopropane-1-carboxamido)-2-fluoro-N-phenylbenzamide]",50 to 100%,50 to 100%,A (80–100)
"O=C(Nc1ccc(F)c(NC(=O)C2CCOC2)c1F)c1cc(NC(=O)[C@H]2[C@H](c3ccc(F)c(C(F)(F)F)c3)C2(Cl)Cl)ccc1Cl (stereo partly drawn) [F1480, N-(3-(2-Chloro-5-((1R,3R)-2,2-dichloro-3-(4-fluoro-3-(trifluoromethyl)phenyl)cyclopropane-1-carboxamido)benzamido)-2,6-difluorophenyl)tetrahydrofuran-3-carboxamide]",50 to 100%,50 to 100%,A (80–100)
"O=C(Nc1ccc(F)c(NC(=O)C2CC(F)(F)C2(F)F)c1F)c1cc(NC(=O)[C@H]2[C@H](c3ccc(F)c(C(F)(F)F)c3)C2(Cl)Cl)ccc1Cl (stereo partly drawn) [F1481, 2-Chloro-5-((1R,3R)-2,2-dichloro-3-(4-fluoro-3-(trifluoromethyl)phenyl)cyclopropane-1-carboxamido)-N-(2,4-difluoro-3-(2,2,3,3-tetrafluorocyclobutane-1-carboxamido)phenyl)benzamide]",50 to 100%,50 to 100%,A (80–100)
"C=CCN(C(=O)C(F)F)c1c(F)ccc(NC(=O)c2cc(NC(=O)[C@H]3[C@H](c4ccc(F)c(C(F)(F)F)c4)C3(Cl)Cl)ccc2Cl)c1F [F1482, N-(3-(N-Allyl-2,2-difluoroacetamido)-2,4-difluorophenyl)-2-chloro-5-((1R,3R)-2,2-dichloro-3-(4-fluoro-3-(trifluoromethyl)phenyl)cyclopropane-1-carboxamido)benzamide]",50 to 100%,50 to 100%,A (80–100)
"O=C1CCC(C(=O)Nc2c(F)ccc(NC(=O)c3cc(NC(=O)[C@H]4[C@H](c5ccc(F)c(C(F)(F)F)c5)C4(Cl)Cl)ccc3Cl)c2F)C1 (stereo partly drawn) [F1488, 2-Chloro-5-((1R,3R)-2,2-dichloro-3-(4-fluoro-3-(trifluoromethyl)phenyl)cyclopropane-1-carboxamido)-N-(2,4-difluoro-3-(3-oxocyclopentane-1-carboxamido)phenyl)benzamide]",50 to 100%,50 to 100%,A (80–100)
"CC(=O)N(C)c1c(F)ccc(NC(=O)c2cc(NC(=O)[C@H]3[C@H](c4ccc(F)c(C(F)(F)F)c4)C3(Cl)Cl)ccc2Cl)c1F [F1506, 2-Chloro-5-((1R,3R)-2,2-dichloro-3-(4-fluoro-3-(trifluoromethyl)phenyl)cyclopropane-1-carboxamido)-N-(2,4-difluoro-3-(N-methylacetamido)phenyl)benzamide]",50 to 100%,50 to 100%,A (80–100)
"CC1(C)C(=O)CC1C(=O)Nc1c(F)ccc(NC(=O)c2cc(NC(=O)[C@H]3[C@H](c4ccc(F)c(C(F)(F)F)c4)C3(Cl)Cl)ccc2Cl)c1F (stereo partly drawn) [F1507, 2-Chloro-5-((1R,3R)-2,2-dichloro-3-(4-fluoro-3-(trifluoromethyl)phenyl)cyclopropane-1-carboxamido)-N-(3-(2,2-dimethyl-3-oxocyclobutane-1-carboxamido)-2,4-difluorophenyl)benzamide]",50 to 100%,50 to 100%,A (80–100)
"O=C(Nc1cc(NC(=O)C(F)(F)F)c(F)cc1F)c1cc(NC(=O)[C@H]2[C@H](c3ccc(Cl)c(Cl)c3)C2(Cl)Cl)ccc1F [F1510, 5-((1R,3R)-2,2-Dichloro-3-(3,4-dichlorophenyl)cyclopropane-1-carboxamido)-N-(2,4-difluoro-5-(2,2,2-trifluoroacetamido)phenyl)-2-fluorobenzamide]",50 to 100%,50 to 100%,A (80–100)
"CC(=O)Nc1cc(NC(=O)c2cc(NC(=O)[C@H]3[C@H](c4ccc(Cl)c(Cl)c4)C3(Cl)Cl)ccc2F)c(F)cc1F [F1511, N-(5-Acetamido-2,4-difluorophenyl)-5-((1R,3R)-2,2-dichloro-3-(3,4-dichlorophenyl)cyclopropane-1-carboxamido)-2-fluorobenzamide]",50 to 100%,50 to 100%,A (80–100)
"O=C(Nc1ccc(F)c(NC(=O)C2CCCO2)c1F)c1cc(NC(=O)[C@H]2[C@H](c3ccc(F)c(C(F)(F)F)c3)C2(Cl)Cl)ccc1Cl (stereo partly drawn) [F1521, N-(3-(2-Chloro-5-((1R,3R)-2,2-dichloro-3-(4-fluoro-3-(trifluoromethyl)phenyl)cyclopropane-1-carboxamido)benzamido)-2,6-difluorophenyl)tetrahydrofuran-2-carboxamide]",50 to 100%,50 to 100%,A (80–100)
"O=C(Nc1ccc(F)c(NC(=O)C(F)(F)F)c1F)c1cc(NC(=O)[C@H]2[C@H](c3cc(Cl)c(Cl)c(Cl)c3)C2(Cl)Cl)ccc1F [F1526, 5-((1R,3R)-2,2-Dichloro-3-(3,4,5-trichlorophenyl)cyclopropane-1-carboxamido)-N-(2,4-difluoro-3-(2,2,2-trifluoroacetamido)phenyl)-2-fluorobenzamide]",50 to 100%,50 to 100%,A (80–100)
"CC(=O)Nc1c(F)ccc(NC(=O)c2cc(NC(=O)[C@H]3[C@H](c4cc(Cl)c(Cl)c(Cl)c4)C3(Cl)Cl)ccc2F)c1F [F1528, N-(3-Acetamido-2,4-difluorophenyl)-5-((1R,3R)-2,2-dichloro-3-(3,4,5-trichlorophenyl)cyclopropane-1-carboxamido)-2-fluorobenzamide]",50 to 100%,50 to 100%,B (More than 0 – Less than 80)
"O=C(Nc1cc(NC(=O)C(F)(F)F)c(F)cc1F)c1cc(NC(=O)[C@H]2[C@H](c3cc(Cl)c(Cl)c(Cl)c3)C2(Cl)Cl)ccc1F [F1551, 5-((1R,3R)-2,2-Dichloro-3-(3,4,5-trichlorophenyl)cyclopropane-1-carboxamido)-N-(2,4-difluoro-5-(2,2,2-trifluoroacetamido)phenyl)-2-fluorobenzamide]",50 to 100%,50 to 100%,A (80–100)
"O=C(Nc1cc(NC(=O)C(F)F)c(F)cc1F)c1cc(NC(=O)[C@H]2[C@H](c3cc(Cl)c(Cl)c(Cl)c3)C2(Cl)Cl)ccc1F [F1552, 5-((1R,3R)-2,2-Dichloro-3-(3,4,5-trichlorophenyl)cyclopropane-1-carboxamido)-N-(5-(2,2-difluoroacetamido)-2,4-difluorophenyl)-2-fluorobenzamide]",50 to 100%,50 to 100%,A (80–100)
